Reference: patent US7772260B2, “Imidazo[2,1-b]-1,3,4-thiadiazole sulfonamides” (Aegera Therapeutics Inc., priority 2001, dated 2010)
Where “and” joins values, the source holds several entries; their conditions need not be identical. Equal entries are not always repeated.

Legend:
[1] = test system: SCG neurons; test: Protection of SCG neurons from anti-NGF killing; type: cell-based, Sprague Dawley rats; settings: anti-NGF antibody, serum and NGF free 48 hours, Alamar Blue, +/−1 uM, read-out: IC(50), rescue from anti-NGF killing of SCG neurons
Experimental: Neurotrophins are critical to the growth, development, and survival of small fiber neurons of the PNS. SCG neurons are neurons of the PNS that undergo apoptosis upon NGF withdrawal. In a typical experiment SCG neurons are cultured in the presence of NGF, which induces survival and neurite out-growth. After 5 days the NGF is removed by either the addition of anti-NGF polyclonal antibody (Sigma) or by repeated washings (4 times) with NGF free media, resulting in the apoptosis of up to 90% of the neurons after 48 hours, as measured by MTS staining.
After 4 days the cells were treated with anti-NGF antibody (Sigma). At this time compound was added and the cells were maintained serum and NGF free for 48 hours, at which time viability was assessed using Alamar Blue (Medicorp) staining.

[2] = test system: SCG neurons; test: cells; type: cell-based, Sprague Dawley rats; settings: Taxol™ (50 ng/mL), viability 48 hours later, MTS, read-out: IC(50), protection of SCG neurons from Taxol killing
[3] = biological target: CA II (Homo sapiens, UniProt P00918); test: CA II inhibition; type: biochemical; settings: read-out: IC(50), CA II inhibition
Experimental: CA II inhabition was measured using the protocol described by Pocker, Y.'Stone, J. Biochemistry 1967, 6, 668.

Molecule	IC50 ([1]; Rattus norvegicus, Neuron)	IC50 ([2]; Rattus norvegicus, Neuron)	IC50 [1]	IC50 [2]	IC50 [3]
NS(=O)(=O)c1nn2cc(-c3ccc(OCCO)cc3)nc2s1 [Compound 26]	23 µM	7 µM	–	–	–
6-(4-bromophenoxyphenyl)imidazo[2,1-b]-1,3,4-thiadiazole-2-sulfonamide [Compound 95]	–	–	7 µM	3 µM	–
NS(=O)(=O)c1nn2cc(-c3ccc(-c4ccc(C(F)(F)F)cc4)cc3)nc2s1 [Compound 82, 6-(4-(4-trifluoromethylphenyl)phenyl)imidazo[2,1-b]-1,3,4-thiadiazole-2-sulfonamide]	25 µM	2 µM	–	–	5.43 µM
NS(=O)(=O)c1nn2cc(-c3ccc(Oc4ccc([N+](=O)[O-])cc4)cc3)nc2s1 [Compound 99, 6-(4-(4-nitrophenoxy)phenyl)imidazo[2,1-b]-1,3,4-thiadiazole-2-sulfonamide]	7 µM	2 µM	–	–	0.914 µM
NS(=O)(=O)c1nn2cc(-c3ccc(-c4cccc(C(F)(F)F)c4)cc3)nc2s1 [Compound 81, 6-(4-(3-trifluoromethylphenyl)phenyl)imidazo[2,1-b]-1,3,4-thiadiazole-2-sulfonamide]	5 µM	3 µM	–	–	1.58 µM
NS(=O)(=O)c1nn2cc(-c3ccc(Oc4ccccc4)cc3)nc2s1 [Compound 87, 6-(4-phenoxyphenyl)imidazo[2,1-b]-1,3,4-thiadiazole-2-sulfonamide]	10 µM	5 µM	–	–	0.128 µM
COc1ccccc1-c1ccc(-c2cn3nc(S(N)(=O)=O)sc3n2)cc1 [Compound 75, 6-(4-(2-methoxyphenyl)phenyl)imidazo[2,1-b]-1,3,4-thiadiazole-2-sulfonamide]	10 µM	5 µM	–	–	0.441 µM
NS(=O)(=O)c1nn2cc(-c3ccc4c(c3)OCCCO4)nc2s1 [Compound 21, 6-(3,4-dihydro-2H-1,5-benzodioxepin-7-yl)imidazo[2,1-b]-1,3,4-thiadiazole-2-sulfonamide]	22 µM	7 µM	–	–	5.32 µM
NS(=O)(=O)c1nn2cc(-c3ccc(-c4ccc(CO)cc4)cc3)nc2s1 [Compound 74, 6-(4-(hydroxymethylphenyl)phenyl)imidazo[2,1-b]-1,3,4-thiadiazole-2-sulfonamide]	20 µM	7 µM	–	–	1.68 µM
NS(=O)(=O)c1nn2cc(-c3ccc(-c4ccccc4)cc3)nc2s1 [Compound 72, 6-(Biphenyl)imidazo[2,1-b]-1,3,4-thiadiazole-2-sulfonamide]	17 µM	10 µM	–	–	1.61 µM and 2.19 µM
NS(=O)(=O)c1nn2cc(-c3ccc(Oc4ccccc4Br)cc3)nc2s1 [Compound 93, 6-(2-bromophenoxyphenyl)imidazo[2,1-b]-1,3,4-thiadiazole-2-sulfonamide]	7 µM	–	–	–	–
